Each structure is given as a SMILES string.

The test system of this experiment is ABHD12−/− macrophages. Kind of experiment: Lyso-PS and cytokine secretion of ABHD12−/− macrophages. Conditions: pre-treatment 1 μM, 4 h. It is filed as cell-based, mouse. As for the experimental part: (a, b) Concentrations of secreted cytokines from ABHD12^+/+ and ABHD12^−/− thioglycollate-elicited peritoneal macrophages that were either unstimulated (PBS) (a) or stimulated (b) with LPS (5 μg/mL, 7 h). […] Student's t-test: * p<0.05 for ABHD12^−/− and ABHD12^+/+ groups. (c) Concentrations of secreted lyso-PS from ABHD12^+/+ and ABHD12^−/− macrophages treated with vehicle (PBS) or LPS (5 μg/mL) for 7 h. […] Student's t-test: ** p<0.0005, *** p<0.0001 for KC01-treated versus DMSO-treated groups.
Peritoneal macrophages were elicited and harvested from mice according to the standard protocols available from LIPID MAPS (See http://www.lipidmaps.org/protocols/PP0000001400.pdf and http://www.lipidmaps.org/protocols/PP0000001500.pdf). After removal of the RBC lysis buffer, the macrophages were re-suspended in RPMI 1640 with 10% FCS and IX penicillin-streptomycin. Cell counts measured using a Bio-Rad TC10 automated cell counter, and equal numbers of cells (2×10^6) were plated in 10 cm tissue culture dishes. Macrophages were allowed to adhere to the plates for 2 h at 37° C. and 5% CO2. […] Macrophages were then stimulated with lipopolysaccharide (5 μg/mL) for 7 hours. Sterile PBS was the vehicle in these studies. Four milliliters of the media was used for measuring secreted metabolites, and 0.5 mL was used for cytokine measurements.

With `CCCCCCCCCCCCCC1OC(=O)/C1=C\CCCCC(N)=O` (stereo not shown) [KC01, (Z)-6-(2-oxo-4-tridecyloxetan-3-ylidene)hexanamide], the “LPS-induced increases in lyso-PSs and cytokine secretion” value is reported as “both blocked”.

These data come from patent publication US20170313669A1, “LACTONE COMPOUNDS AND METHODS OF MAKING AND USING SAME” (THE SCRIPPS RESEARCH INSTITUTE, priority 2015, published 2017).
